Measured values taken from US11197908B2, “Peptoids and methods for attenuating inflammatory response” (THE BOARD OF TRUSTEES OF THE UNIVERSITY OF ARKANSAS, priority 2018, dated 2021).
Read-outs that look alike come from different tables or passages of the source. Where a SMILES comes first, the peptide text is derived from it. [ ]: non-standard residue; d: D form. N(1S-Me-propyl)Gly = CC[C@H](C)NCC(=O)O; Nspe = C[C@H](NCC(=O)O)c1ccccc1; Nlys = NCCCCNCC(=O)O

What was measured:
[1] = system: IL-1β; assay: IL-1β in supernatant of THP-1 macrophages co-incubated with peptoid and LPS (ELISA); type: cell-based, human; conditions: peptoid 50 μM with 2 ng/mL LPS, 3 days; vs LPS alone
Description: THP-1 monocytes were differentiated into macrophages through exposure to phorbol 12-myristate 13-acetate (PMA) for three days prior to experimentation 10. […] Upon differentiation, these cells were then incubated (3 days) with media containing JPT1a (50, 10, or 2 μM) alone or JPT1a (50, 10, or 2 μM) in the presence of low-dose (2 ng/mL) lipopolysaccharide (LPS) as a chronic pro-inflammatory stimulus 11. Treatment with 2 ng/mL LPS alone served as a positive control, while treatment with an equivalent volume of buffer diluted into media served as the vehicle. Cellular supernatant was harvested on day 3 12; these samples were immediately centrifuged at 1200 rpm for 10 min at 25° C. to remove any cells or debris. […] All multi-channel images were converted to TIFF file format via ImageJ64 software for quantitative image analysis using a custom subroutine written in Matlab™ software to obtain the average RAGE expression per volume of cells, and the data generated was assessed for statistical significance using GraphPad Prism 7.0 software 15.
As shown in FIGS. 2B-2D, THP-1 macrophages were treated with JPT1a alone (white) or in the presence of a chronic low-dose (2 ng/mL) of LPS (grey), for 3 days prior to supernatant harvest and storage. Examination of the supernatant via ELISA determined the concentrations of (FIG. 2B) IL-1β, (FIG. 2C) IL-6, and (FIG. 2D) IL-8. […]

[2] = system: IL-8; assay: IL-8 expression in previously LPS-stimulated THP1 macrophages (ELISA); type: cell-based, human; conditions: 25, 5, 1 μM added after 48 h of 2 ng/mL LPS, additional 24 h
Description: THP-1 monocytes were differentiated as described above 20. Upon differentiation, these cells were then incubated (48 h) with media containing low-dose (2 ng/mL) LPS as a chronic pro-inflammatory stimulus 21. Following incubation, JPT1a or JPT1 was added for final concentrations of 25, 5, and 1 μM 22, and cells were incubated an additional 24 h. Treatment with 2 ng/mL LPS alone served as a positive control, while treatment with an equivalent volume of buffer diluted into media served as the vehicle. Media was collected for later assessment of cytokines via ELISA as described above 23. Cells were fixed and stained for RAGE, phalloidin (cytoplasmic marker), and DAPI (nuclear marker) 24. Each channel was imaged with a Zeiss LSM 510 META Confocal Scanning Laser Microscope using a plan-neofluar 40×/1.3 oil DIC immersion objective; three of these multi-channel images were obtained from each slide in each experiment. 25 All multi-channel images were converted to TIFF file format via ImageJ64 software for quantitative image analysis using a custom subroutine written in Matlab™ software to obtain the average RAGE expression per volume of cells, and the data generated was assessed for statistical significance using GraphPad Prism 7.0 software 26.
As shown in FIGS. 4B-4D, THP1 macrophages were treated with low-dose LPS at 2 ng/mL. […]

[3] = target: RAGE (Homo sapiens, UniProt Q15109); assay: Binding affinity for RAGE from binding equilibrium attained in solution (competition ELISA); conditions: 20 nM RAGE, JPT1a 0 to 1000 nM, overnight
Sequence of RAGE (Q15109 23-404): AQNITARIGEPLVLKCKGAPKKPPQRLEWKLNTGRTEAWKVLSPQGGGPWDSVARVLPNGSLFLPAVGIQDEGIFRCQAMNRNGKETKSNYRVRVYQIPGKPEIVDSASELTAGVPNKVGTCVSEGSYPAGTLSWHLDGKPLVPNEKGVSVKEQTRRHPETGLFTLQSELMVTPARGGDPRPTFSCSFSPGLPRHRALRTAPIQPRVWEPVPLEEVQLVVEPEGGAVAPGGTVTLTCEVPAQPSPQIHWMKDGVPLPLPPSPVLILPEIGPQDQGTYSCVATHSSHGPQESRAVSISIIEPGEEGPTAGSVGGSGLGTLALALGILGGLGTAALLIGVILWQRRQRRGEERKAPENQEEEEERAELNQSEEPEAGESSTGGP
Description: Definitive binding affinity of JPT1a for RAGE was determined from binding equilibrium attained in solution. As shown in FIGS. 8A-8B, 96-well plates coated with 500 nM JPT1a were treated with overnight incubations containing 20 nM RAGE and JPT1a in concentrations ranging from 0 nM to 1000 nM. Absorbance values were used to calculate relative [RAGE]bound and [RAGE]free via the […] (Friguet B, Chaffotte A F, Djavadi-Ohaniance L, Goldberg M E. Measurements of the true affinity constant in solution of antigen-antibody complexes by enzyme-linked immunosorbent assay. J Immunol Methods. 1985; 77(2):305-319; Rath S, Stanley C M. An inhibition enzyme immunoassay for estimating relative antibody affinity and affinity heterogeneity. 1988; 106:245-249; Newton P, Harrison P, Clulow S. A Novel Method for Determination of the Affinity of Protein: Protein Interactions in Homogeneous Assays. 2008:674-682). FIG. 8A. […] Black dashed lines indicate 95% confidence interval, and gray dashed lines indicate 95% prediction interval, n=4. FIG. 8B. […] Dashed lines indicate 95% confidence interval, n=3.

- Kd ([3]; n=3, read-out: Kd, plot of specific binding (one epitope)): 79 ± 28.4 nM
- Kd ([3]; n=4, read-out: binding affinity for RAGE (Scatchard plot)): 139 nM
SMILES: CC[C@H](C)N(CC(=O)N(CC(=O)N(CC(=O)N(CC(=O)N(CC(=O)N(CC(=O)N(CC(N)=O)[C@@H](C)c1ccccc1)[C@@H](C)c1ccccc1)[C@@H](C)CC)[C@@H](C)c1ccccc1)[C@@H](C)c1ccccc1)[C@@H](C)CC)C(=O)CNCCCCN [JPT1a] (H-[Nlys][N(1S-Me-propyl)Gly][N(1S-Me-propyl)Gly][Nspe][Nspe][N(1S-Me-propyl)Gly][Nspe][Nspe]-NH2)
- LPS-induced production of IL-1β [1]: significantly attenuates
- IL-8 production of previously stimulated macrophages [2]: does not affect cytokine production
